Laboratory results reported in PMC11240139, “Exploring the antitumor potential of novel quinoline derivatives via tubulin polymerization inhibition in breast cancer; design, synthesis and molecular docking” (RSC Advances, 2024).

How the values were obtained:
Type in all cases: cell-based
CCRF-CEM (leukemia) = test: NCI-60 SRB cytotoxicity screen; settings: Homo sapiens, single dose 10 μM, read-out: growth inhibition (GI%)
HL-60(TB) (leukemia) = test: NCI-60 SRB cytotoxicity screen; settings: Homo sapiens, single dose 10 μM, read-out: growth inhibition (GI%)
K-562 (leukemia) = test: NCI-60 SRB cytotoxicity screen; settings: Homo sapiens; K-652 [sic], single dose 10 μM; read-out: growth inhibition (GI%)
[1] = system: A549/ATCC (non-small cell lung cancer); test: NCI-60 SRB cytotoxicity screen; settings: Homo sapiens, single dose 10 μM, read-out: growth inhibition (GI%)
[2] = system: HOP-62 (non-small cell lung cancer); test: NCI-60 SRB cytotoxicity screen; settings: Homo sapiens; HOP-62, single dose 10 μM; read-out: growth inhibition (GI%)
[3] = system: NCI-H23 (non-small cell lung cancer); test: NCI-60 SRB cytotoxicity screen; settings: Homo sapiens; NCI-H23, single dose 10 μM; read-out: growth inhibition (GI%)
[4] = system: NCI-H322M (non-small cell lung cancer); test: NCI-60 SRB cytotoxicity screen; settings: Homo sapiens, single dose 10 μM, read-out: growth inhibition (GI%)
[5] = system: NCI-H460 (non-small cell lung cancer); test: NCI-60 SRB cytotoxicity screen; settings: Homo sapiens; NCI-H460, single dose 10 μM; read-out: growth inhibition (GI%)
[6] = system: NCI-H522 (non-small cell lung cancer); test: NCI-60 SRB cytotoxicity screen; settings: Homo sapiens; NCI-H522, single dose 10 μM; read-out: growth inhibition (GI%)
HCT-15 (colon cancer) = test: NCI-60 SRB cytotoxicity screen; settings: Homo sapiens; HCT-15, single dose 10 μM; read-out: growth inhibition (GI%)
SF-268 (CNS cancer) = test: NCI-60 SRB cytotoxicity screen; settings: Homo sapiens; SF-268, single dose 10 μM; read-out: growth inhibition (GI%)
SF-539 (CNS cancer) = test: NCI-60 SRB cytotoxicity screen; settings: Homo sapiens; SF-539, single dose 10 μM; read-out: growth inhibition (GI%)
SNB-19 (CNS cancer) = test: NCI-60 SRB cytotoxicity screen; settings: Homo sapiens; SNB-19, single dose 10 μM; read-out: growth inhibition (GI%)
U251 (CNS cancer) = test: NCI-60 SRB cytotoxicity screen; settings: Homo sapiens, U-251; U251, single dose 10 μM; read-out: growth inhibition (GI%)
MDA-MB-435 (melanoma) = test: NCI-60 SRB cytotoxicity screen; settings: Homo sapiens, MDA-MB-435, read-out: growth inhibition (GI%);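 note: growth inhibition in percent at a single 10 µM dose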
SK-MEL-2 (melanoma) = test: NCI-60 SRB cytotoxicity screen; settings: Homo sapiens; SK-MEL-2, single dose 10 μM; read-out: growth inhibition (GI%)
SK-MEL-5 (melanoma) = test: NCI-60 SRB cytotoxicity screen; settings: Homo sapiens; SK-MEL-5, single dose 10 μM; read-out: growth inhibition (GI%)
UACC-62 (melanoma) = test: NCI-60 SRB cytotoxicity screen; settings: Homo sapiens; UACC-62, single dose 10 μM; read-out: growth inhibition (GI%)
OVCAR-4 (ovarian cancer) = test: NCI-60 SRB cytotoxicity screen; settings: Homo sapiens; OVCAR-4, single dose 10 μM; read-out: growth inhibition (GI%)
OVCAR-5 (ovarian cancer) = test: NCI-60 SRB cytotoxicity screen; settings: Homo sapiens; OVCAR-5, single dose 10 μM; read-out: growth inhibition (GI%)
OVCAR-8 (ovarian cancer) = test: NCI-60 SRB cytotoxicity screen; settings: Homo sapiens; OVCAR-8, single dose 10 μM; read-out: growth inhibition (GI%)
SK-OV-3 (ovarian cancer) = test: NCI-60 SRB cytotoxicity screen; settings: Homo sapiens; SK-OV-3, single dose 10 μM; read-out: growth inhibition (GI%)
ACHN (renal cancer) = test: NCI-60 SRB cytotoxicity screen; settings: Homo sapiens, single dose 10 μM, read-out: growth inhibition (GI%)
RXF 393 (renal cancer) = test: NCI-60 SRB cytotoxicity screen; settings: Homo sapiens; RXF 393, single dose 10 μM; read-out: growth inhibition (GI%)
UO-31 (renal cancer) = test: NCI-60 SRB cytotoxicity screen; settings: Homo sapiens; UO-31, single dose 10 μM; read-out: growth inhibition (GI%)
MCF7 (breast cancer) = test: NCI-60 SRB cytotoxicity screen; settings: Homo sapiens; MCF7, single dose 10 μM; read-out: growth inhibition (GI%)
HS 578T (breast cancer) = test: NCI-60 SRB cytotoxicity screen; settings: Homo sapiens, single dose 10 μM, read-out: growth inhibition (GI%)
BT-549 (breast cancer) = test: NCI-60 SRB cytotoxicity screen; settings: Homo sapiens; BT-549, single dose 10 μM; read-out: growth inhibition (GI%)
T-47D (breast cancer) = test: NCI-60 SRB cytotoxicity screen; settings: Homo sapiens, T47D, single dose 10 μM, read-out: growth inhibition (GI%)
[7] = system: MDA-MB-468 (breast cancer); test: NCI-60 SRB cytotoxicity screen; settings: Homo sapiens; MDA-MB-468, single dose 10 μM; read-out: growth inhibition (GI%)
Procedure, shortened: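 NCI-60 single-dose (10^−5 M) screen in MDA-MB-468 with SRB protein-stain read-out after 48 h exposure; cells TCA-fixed and absorbance read at 540 nm. Reported as GI%, with compounds meeting NCI activity criteria then run at five doses (0.01–100 μM).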

[8] = system: 60 cancer cell lines (NCI); test: NCI-60 single-dose screen, overall verdict over the panel; settings: single dose 10 μM, whole panel
Method: The cytotoxic activity of the synthesized quinoline derivatives was determined by the national cancer institute (NCI, Bethesda, Maryland, USA) against 60 different cancer cell lines at a single high dose (10^−5 M) in the full NCI 60 cell panel using the sulforhodamine B assay for cell viability evaluation. In summary, 5 × 10^3 cells were in 96-well plate and incubated in complete media for 24 h. Cells were treated with 100 μL of media containing each newly synthesized compound. After drug exposure, cells were fixed by replacing media with 150 μL of 10% TCA and incubated at 4 °C for 1 h. The TCA solution was removed, and the cells were washed 5 times with distilled water. Aliquots of 70 μL SRB solution (0.4% w/v) were added and incubated in a dark place at room temperature for 10 min. The plates were washed 3 times with 1% acetic acid and allowed to air-dry overnight. Then, 150 μL of TRIS (10 mM) was added to dissolve protein-bound SRB stain. The absorbance was measured at 540 nm.% Cytotoxicity = [1 − (AVx/AVNC)] × 100where AVx denotes the average absorbance of the sample well and AVNC denotes the average absorbance of the negative control.

In the case of CCc1cccc2cc(-c3cc(-c4ccc(Br)cc4)[nH]c(=O)c3C#N)c(Cl)nc12 [Compound 4e, 6-(4-Bromophenyl)-4-(2-chloro-8-ethylquinolin-3-yl)-2-oxo-1,2-dihydropyridine-3-carbonitrile], the inhibition at 10 µM (CCRF-CEM (leukemia)) was < 10%, the inhibition at 10 µM (HL-60(TB) (leukemia)) was < 10% and the inhibition at 10 µM (K-562 (leukemia)) was 33.5%. For the same molecule, the inhibition at 10 µM [1] was < 10%, the inhibition at 10 µM [2] was < 10% and the inhibition at 10 µM [3] was < 10%. For the same molecule, the inhibition at 10 µM [4] was < 10%, the inhibition at 10 µM [5] was < 10% and the inhibition at 10 µM [6] was < 10%. For the same molecule, the inhibition at 10 µM (HCT-15 (colon cancer)) was < 10%, the inhibition at 10 µM (SF-268 (CNS cancer)) was < 10% and the inhibition at 10 µM (SF-539 (CNS cancer)) was < 10%. For the same molecule, the inhibition at 10 µM (SNB-19 (CNS cancer)) was < 10%, the inhibition at 10 µM (U251 (CNS cancer)) was < 10% and the inhibition at 10 µM (MDA-MB-435 (melanoma)) was < 10%. The inhibition at 10 µM (SK-MEL-2 (melanoma)) was < 10%, the inhibition at 10 µM (SK-MEL-5 (melanoma)) was 13% and the inhibition at 10 µM (UACC-62 (melanoma)) was < 10%. For the same molecule, the inhibition at 10 µM (OVCAR-4 (ovarian cancer)) was 10.8%, the inhibition at 10 µM (OVCAR-5 (ovarian cancer)) was < 10% and the inhibition at 10 µM (OVCAR-8 (ovarian cancer)) was < 10%. For the same molecule, the inhibition at 10 µM (SK-OV-3 (ovarian cancer)) was 11.7%, the inhibition at 10 µM (ACHN (renal cancer)) was < 10% and the inhibition at 10 µM (RXF 393 (renal cancer)) was < 10%. For the same molecule, the inhibition at 10 µM (UO-31 (renal cancer)) was 17.8%, the inhibition at 10 µM (MCF7 (breast cancer)) was 20.6% and the inhibition at 10 µM (HS 578T (breast cancer)) was < 10%. For the same molecule, the inhibition at 10 µM (BT-549 (breast cancer)) was 27.7%, the inhibition at 10 µM (T-47D (breast cancer)) was < 10% and the inhibition at 10 µM [7] was < 10%. The “cytotoxic activity over the cell lines (in words)” value [8] was “mild cytotoxic activity”.
With CCc1cccc2cc(-c3cc(-c4ccc(OC)c(OC)c4)[nH]c(=S)c3C#N)c(Cl)nc12 [Compound 5b, 4-(2-Chloro-8-ethylquinolin-3-yl)-6-(3,4-dimethoxyphenyl)-2-thioxo-1,2-dihydropyridine-3-carbonitrile] the inhibition at 10 µM (CCRF-CEM (leukemia)) was 28.8%, the inhibition at 10 µM (HL-60(TB) (leukemia)) was < 10% and the inhibition at 10 µM (K-562 (leukemia)) was 28%. The inhibition at 10 µM [1] was 19.7%, the inhibition at 10 µM [2] was < 10% and the inhibition at 10 µM [3] was 20.3%. The inhibition at 10 µM [4] was < 10%, the inhibition at 10 µM [5] was < 10% and the inhibition at 10 µM [6] was < 10%. It also gave an inhibition at 10 µM (HCT-15 (colon cancer)) of 12.2%, an inhibition at 10 µM (SF-268 (CNS cancer)) of 32.2% and an inhibition at 10 µM (SF-539 (CNS cancer)) of 22%. For the same molecule, the inhibition at 10 µM (SNB-19 (CNS cancer)) was 22.6%, the inhibition at 10 µM (U251 (CNS cancer)) was 13.7% and the inhibition at 10 µM (MDA-MB-435 (melanoma)) was < 10%. The inhibition at 10 µM (SK-MEL-2 (melanoma)) was < 10%, the inhibition at 10 µM (SK-MEL-5 (melanoma)) was 21% and the inhibition at 10 µM (UACC-62 (melanoma)) was 19.1%. The inhibition at 10 µM (OVCAR-4 (ovarian cancer)) was 22.4%, the inhibition at 10 µM (OVCAR-5 (ovarian cancer)) was < 10% and the inhibition at 10 µM (OVCAR-8 (ovarian cancer)) was 31.5%. The inhibition at 10 µM (SK-OV-3 (ovarian cancer)) was < 10%, the inhibition at 10 µM (ACHN (renal cancer)) was 15.7% and the inhibition at 10 µM (RXF 393 (renal cancer)) was 24.6%. The inhibition at 10 µM (UO-31 (renal cancer)) was 23.3%, the inhibition at 10 µM (MCF7 (breast cancer)) was 26.6% and the inhibition at 10 µM (HS 578T (breast cancer)) was 23.1%. For the same molecule, the inhibition at 10 µM (BT-549 (breast cancer)) was 28.2%, the inhibition at 10 µM (T-47D (breast cancer)) was 41.1% and the inhibition at 10 µM [7] was 22.8%. The “cytotoxic activity over the cell lines (in words)” value [8] was “slight cytotoxic activity”.
CCc1cccc2cc(C3C=C(c4ccc(OC)cc4)NC(=S)N3)c(Cl)nc12 (stereo not drawn) [Compound 6a, 4-(2-Chloro-8-ethylquinolin-3-yl)-6-(4-methoxyphenyl)-3,4-dihydropyrimidine-2(1H)-thione] was tested, and the inhibition at 10 µM (CCRF-CEM (leukemia)) was < 10%, the inhibition at 10 µM (HL-60(TB) (leukemia)) was < 10% and the inhibition at 10 µM (K-562 (leukemia)) was < 10%. For the same molecule, the inhibition at 10 µM [1] was < 10%, the inhibition at 10 µM [2] was < 10% and the inhibition at 10 µM [3] was < 10%. The inhibition at 10 µM [4] was < 10%, the inhibition at 10 µM [5] was < 10% and the inhibition at 10 µM [6] was < 10%. For the same molecule, the inhibition at 10 µM (HCT-15 (colon cancer)) was < 10%, the inhibition at 10 µM (SF-268 (CNS cancer)) was < 10% and the inhibition at 10 µM (SF-539 (CNS cancer)) was < 10%. For the same molecule, the inhibition at 10 µM (SNB-19 (CNS cancer)) was < 10%, the inhibition at 10 µM (U251 (CNS cancer)) was < 10% and the inhibition at 10 µM (MDA-MB-435 (melanoma)) was < 10%. For the same molecule, the inhibition at 10 µM (SK-MEL-2 (melanoma)) was < 10%, the inhibition at 10 µM (SK-MEL-5 (melanoma)) was < 10% and the inhibition at 10 µM (UACC-62 (melanoma)) was 10.4%. The inhibition at 10 µM (OVCAR-4 (ovarian cancer)) was < 10%, the inhibition at 10 µM (OVCAR-5 (ovarian cancer)) was < 10% and the inhibition at 10 µM (OVCAR-8 (ovarian cancer)) was < 10%. The inhibition at 10 µM (SK-OV-3 (ovarian cancer)) was 14.9%, the inhibition at 10 µM (ACHN (renal cancer)) was < 10% and the inhibition at 10 µM (RXF 393 (renal cancer)) was < 10%. For the same molecule, the inhibition at 10 µM (UO-31 (renal cancer)) was 18.6%, the inhibition at 10 µM (MCF7 (breast cancer)) was < 10% and the inhibition at 10 µM (HS 578T (breast cancer)) was < 10%. For the same molecule, the inhibition at 10 µM (BT-549 (breast cancer)) was < 10%, the inhibition at 10 µM (T-47D (breast cancer)) was < 10% and the inhibition at 10 µM [7] was < 10%. For the same molecule, the “cytotoxic activity over the cell lines (in words)” value [8] was “limited cytotoxic activity”.
